{"source": "patent US20140155580A1", "about": "“TRANSGENIC AVES PRODUCING HUMAN POLYCLONAL ANTIBODIES” (Synageva BioPharma Corp., priority 2003, published 2014)", "system": "chicken embryonic stem cells", "experiment": "Titration kill curve: cES cells in culture exposed to puromycin or neomycin", "format": "cell-based", "set-up": "key to Morphology of cES cells: ES: ES cells are present.; diff: ES cells are differentiated.; gone: no morphologically recognizable cells are present", "procedure": "In a preferred embodiment, the concentration of puromycin required for selecting transfected cells is calculated as a titration kill curve. Titration kill curves for chicken embryonic stem cells are established by exposing cells in culture to puromycin concentrations varying from 0.0 to 1.0 μg/ml for 10 days (Table 7) and neomycin concentrations varying from 0.0 to 200 μg/ml (Table 8). The medium is changed every 2 days and fresh puromycin or neomycin is added. […] Puromycin concentrations of 0.3-1.0 μg/ml are used for selection of the transfected cultures. Neomycin concentrations over 40 μg/ml eliminated all cES cells within 7 days (Table 8).", "data": [{"substance": "neomycin", "values": [{"measurement": "Morphology of cES cells", "setting": "neomycin 10 μg/ml, day 1 under selection", "result": "ES"}, {"measurement": "Morphology of cES cells", "setting": "neomycin 10 μg/ml, day 2 under selection", "result": "ES"}, {"measurement": "Morphology of cES cells", "setting": "neomycin 10 μg/ml, day 3 under selection", "result": "ES"}, {"measurement": "Morphology of cES cells", "setting": "neomycin 10 μg/ml, day 4 under selection", "result": "ES"}, {"measurement": "Morphology of cES cells", "setting": "neomycin 10 μg/ml, day 5 under selection", "result": "ES"}, {"measurement": "Morphology of cES cells", "setting": "neomycin 10 μg/ml, day 6 under selection", "result": "ES"}, {"measurement": "Morphology of cES cells", "setting": "neomycin 10 μg/ml, day 7 under selection", "result": "ES"}, {"measurement": "Morphology of cES cells", "setting": "neomycin 10 μg/ml, day 8 under selection", "result": "ES"}, {"measurement": "Morphology of cES cells", "setting": "neomycin 10 μg/ml, day 9 under selection", "result": "ES"}, {"measurement": "Morphology of cES cells", "setting": "neomycin 10 μg/ml, day 10 under selection", "result": "ES"}, {"measurement": "Morphology of cES cells", "setting": "neomycin 20 μg/ml, day 1 under selection", "result": "ES"}, {"measurement": "Morphology of cES cells", "setting": "neomycin 20 μg/ml, day 2 under selection", "result": "ES"}, {"measurement": "Morphology of cES cells", "setting": "neomycin 20 μg/ml, day 3 under selection", "result": "ES"}, {"measurement": "Morphology of cES cells", "setting": "neomycin 20 μg/ml, day 4 under selection", "result": "ES"}, {"measurement": "Morphology of cES cells", "setting": "neomycin 20 μg/ml, day 5 under selection", "result": "ES"}, {"measurement": "Morphology of cES cells", "setting": "neomycin 20 μg/ml, day 6 under selection", "result": "ES"}, {"measurement": "Morphology of cES cells", "setting": "neomycin 20 μg/ml, day 7 under selection", "result": "ES"}, {"measurement": "Morphology of cES cells", "setting": "neomycin 20 μg/ml, day 8 under selection", "result": "ES"}, {"measurement": "Morphology of cES cells", "setting": "neomycin 20 μg/ml, day 9 under selection", "result": "ES"}, {"measurement": "Morphology of cES cells", "setting": "neomycin 20 μg/ml, day 10 under selection", "result": "ES"}, {"measurement": "Morphology of cES cells", "setting": "neomycin 30 μg/ml, day 1 under selection", "result": "ES"}, {"measurement": "Morphology of cES cells", "setting": "neomycin 30 μg/ml, day 2 under selection", "result": "ES"}, {"measurement": "Morphology of cES cells", "setting": "neomycin 30 μg/ml, day 3 under selection", "result": "ES"}, {"measurement": "Morphology of cES cells", "setting": "neomycin 30 μg/ml, day 4 under selection", "result": "ES"}, {"measurement": "Morphology of cES cells", "setting": "neomycin 30 μg/ml, day 5 under selection", "result": "ES"}, {"measurement": "Morphology of cES cells", "setting": "neomycin 30 μg/ml, day 6 under selection", "result": "ES"}, {"measurement": "Morphology of cES cells", "setting": "neomycin 30 μg/ml, day 9 under selection", "result": "Diff"}, {"measurement": "Morphology of cES cells", "setting": "neomycin 40 μg/ml, day 1 under selection", "result": "ES"}, {"measurement": "Morphology of cES cells", "setting": "neomycin 40 μg/ml, day 2 under selection", "result": "ES"}, {"measurement": "Morphology of cES cells", "setting": "neomycin 40 μg/ml, day 3 under selection", "result": "ES"}, {"measurement": "Morphology of cES cells", "setting": "neomycin 40 μg/ml, day 4 under selection", "result": "ES"}, {"measurement": "Morphology of cES cells", "setting": "neomycin 40 μg/ml, day 7 under selection", "result": "dead"}, {"measurement": "Morphology of cES cells", "setting": "neomycin 40 μg/ml, day 8 under selection", "result": "gone"}, {"measurement": "Morphology of cES cells", "setting": "neomycin 40 μg/ml, day 9 under selection", "result": "gone"}, {"measurement": "Morphology of cES cells", "setting": "neomycin 40 μg/ml, day 10 under selection", "result": "gone"}, {"measurement": "Morphology of cES cells", "setting": "neomycin 50 μg/ml, day 1 under selection", "result": "ES"}, {"measurement": "Morphology of cES cells", "setting": "neomycin 50 μg/ml, day 2 under selection", "result": "ES"}, {"measurement": "Morphology of cES cells", "setting": "neomycin 50 μg/ml, day 3 under selection", "result": "ES"}, {"measurement": "Morphology of cES cells", "setting": "neomycin 50 μg/ml, day 8 under selection", "result": "gone"}, {"measurement": "Morphology of cES cells", "setting": "neomycin 50 μg/ml, day 9 under selection", "result": "gone"}, {"measurement": "Morphology of cES cells", "setting": "neomycin 50 μg/ml, day 10 under selection", "result": "gone"}, {"measurement": "Morphology of cES cells", "setting": "neomycin 60 μg/ml, day 1 under selection", "result": "ES"}, {"measurement": "Morphology of cES cells", "setting": "neomycin 60 μg/ml, day 2 under selection", "result": "ES"}, {"measurement": "Morphology of cES cells", "setting": "neomycin 60 μg/ml, day 3 under selection", "result": "ES"}, {"measurement": "Morphology of cES cells", "setting": "neomycin 60 μg/ml, day 4 under selection", "result": "gone"}, {"measurement": "Morphology of cES cells", "setting": "neomycin 60 μg/ml, day 5 under selection", "result": "gone"}, {"measurement": "Morphology of cES cells", "setting": "neomycin 60 μg/ml, day 6 under selection", "result": "gone"}, {"measurement": "Morphology of cES cells", "setting": "neomycin 60 μg/ml, day 7 under selection", "result": "gone"}, {"measurement": "Morphology of cES cells", "setting": "neomycin 60 μg/ml, day 8 under selection", "result": "gone"}, {"measurement": "Morphology of cES cells", "setting": "neomycin 60 μg/ml, day 9 under selection", "result": "gone"}, {"measurement": "Morphology of cES cells", "setting": "neomycin 60 μg/ml, day 10 under selection", "result": "gone"}, {"measurement": "Morphology of cES cells", "setting": "neomycin 100 μg/ml, day 2 under selection", "result": "Diff"}, {"measurement": "Morphology of cES cells", "setting": "neomycin 100 μg/ml, day 3 under selection", "result": "dead"}, {"measurement": "Morphology of cES cells", "setting": "neomycin 100 μg/ml, day 4 under selection", "result": "gone"}, {"measurement": "Morphology of cES cells", "setting": "neomycin 100 μg/ml, day 5 under selection", "result": "gone"}, {"measurement": "Morphology of cES cells", "setting": "neomycin 100 μg/ml, day 6 under selection", "result": "gone"}, {"measurement": "Morphology of cES cells", "setting": "neomycin 100 μg/ml, day 7 under selection", "result": "gone"}, {"measurement": "Morphology of cES cells", "setting": "neomycin 100 μg/ml, day 8 under selection", "result": "gone"}, {"measurement": "Morphology of cES cells", "setting": "neomycin 100 μg/ml, day 9 under selection", "result": "gone"}, {"measurement": "Morphology of cES cells", "setting": "neomycin 100 μg/ml, day 10 under selection", "result": "gone"}, {"measurement": "Morphology of cES cells", "setting": "neomycin 150 μg/ml, day 1 under selection", "result": "dead"}, {"measurement": "Morphology of cES cells", "setting": "neomycin 150 μg/ml, day 2 under selection", "result": "dead"}, {"measurement": "Morphology of cES cells", "setting": "neomycin 150 μg/ml, day 3 under selection", "result": "gone"}, {"measurement": "Morphology of cES cells", "setting": "neomycin 150 μg/ml, day 4 under selection", "result": "gone"}, {"measurement": "Morphology of cES cells", "setting": "neomycin 150 μg/ml, day 5 under selection", "result": "gone"}, {"measurement": "Morphology of cES cells", "setting": "neomycin 150 μg/ml, day 6 under selection", "result": "gone"}, {"measurement": "Morphology of cES cells", "setting": "neomycin 150 μg/ml, day 7 under selection", "result": "gone"}, {"measurement": "Morphology of cES cells", "setting": "neomycin 150 μg/ml, day 8 under selection", "result": "gone"}, {"measurement": "Morphology of cES cells", "setting": "neomycin 150 μg/ml, day 9 under selection", "result": "gone"}, {"measurement": "Morphology of cES cells", "setting": "neomycin 150 μg/ml, day 10 under selection", "result": "gone"}, {"measurement": "Morphology of cES cells", "setting": "neomycin 200 μg/ml, day 1 under selection", "result": "dead"}, {"measurement": "Morphology of cES cells", "setting": "neomycin 200 μg/ml, day 2 under selection", "result": "gone"}, {"measurement": "Morphology of cES cells", "setting": "neomycin 200 μg/ml, day 3 under selection", "result": "gone"}, {"measurement": "Morphology of cES cells", "setting": "neomycin 200 μg/ml, day 4 under selection", "result": "gone"}, {"measurement": "Morphology of cES cells", "setting": "neomycin 200 μg/ml, day 5 under selection", "result": "gone"}, {"measurement": "Morphology of cES cells", "setting": "neomycin 200 μg/ml, day 6 under selection", "result": "gone"}, {"measurement": "Morphology of cES cells", "setting": "neomycin 200 μg/ml, day 7 under selection", "result": "gone"}, {"measurement": "Morphology of cES cells", "setting": "neomycin 200 μg/ml, day 8 under selection", "result": "gone"}, {"measurement": "Morphology of cES cells", "setting": "neomycin 200 μg/ml, day 9 under selection", "result": "gone"}, {"measurement": "Morphology of cES cells", "setting": "neomycin 200 μg/ml, day 10 under selection", "result": "gone"}, {"measurement": "Time in which all cES cells were eliminated", "setting": "neomycin concentrations over 40 μg/ml", "result": "≤ 7", "unit": "days"}]}]}
